2 compounds from publication PMC5622107, “Small molecule inhibition of cGAS reduces interferon expression in primary macrophages from autoimmune mice” (Nature Communications, 2017) can be followed below.

Assay [1] deals with RAW macrophage cells stimulated with 5′ppp-HP20 RNA, Pam3CSK4, poly(I:C), LPS or recombinant Ifnb. Kind of assay: Selectivity: RAW macrophages stimulated with non-DNA immunogenic ligands (luciferase reporter or Il-6 qRT-PCR). It counts as cell-based, mouse. As for the experimental part: (§1) The sequence and annealing conditions of the dsDNA used is described above. Typically, 0.4 µg or 0.6 µg of dsDNA was used to stimulate RAW-Lucia ISG-KO-TREX1/ISG-KO-cGAS or RAW-Lucia ISG cells, respectively, which equated to 90% of maximal luciferase activity observed. dsDNA stimulation of RAW macrophages and subsequent luciferase measurements were performed with or without the addition of small molecules at indicated concentrations in each figure, or with DMSO as vehicle control. For the dose curve experiments, serial dilutions of inhibitors were applied to 6.7 × 10^5 cells, plated in 24-well dishes, and co-stimulated with 0.4 µg of dsDNA. In subsequent experiments using inhibitors in RAW cells, the small molecules were used at concentrations representing the derived EC75 values, while co-stimulated with one of the following: 0.4 µg dsDNA, 50 nM 5′ppp-HP20 hairpin RNA (a kind gift from Dr Anna Pyle, Yale University; sequence located in Supplementary Table 5), 10 µM cGAMP, or 100 U ml^−1 murine recombinant Ifnb (R&D Systems). dsDNA was transfected using Lipofectamine LTX. 5′ppp-HP20 RNA was transfected using Lipofectamine 2000. Cells were harvested 24 h post-transfection, washed with PBS, and lysed in 1× Luciferase Cell Lysis Buffer (Pierce).
The minimum numbers of biological and technical replicates for the luciferase assays were two and three, respectively. Analysis of luminescence values were evaluated for outliers (one standard deviation above and below the mean) for each biological replicate, and the resulting means were used to generate graphs in GraphPad Prism (v. 7.0c); where applicable, an unpaired t-test with Welch’s correction was used to compare the results of each individual compound to dsDNA or other stimulant. The experimental variances observed within control samples (untreated or vehicle) and treated samples were similar.
The small molecules were used at concentrations representing the EC75 values and were co-stimulated with either 200 ng Pam3CSK4 (Invivogen), 25 µg poly(I:C) or 100 ng lipopolysaccharide (Sigma-Aldrich) at the cell counts and conditions previously described for the cellular luciferase assays. Cells were harvested 24 h post-transfection, washed with PBS, and RNA was extracted using Trizol (Ambion) and chloroform (Sigma-Aldrich). In all, 1–2 µg of total RNA was reverse-transcribed using random hex primers and SuperScript III (Life Technologies) into cDNA. […] The expression of mRNAs […] murine Actb1 and Il-6 were measured (see Supplementary Table 5 for primer sequences used). Target C T values were normalized to Actb1 C T values and used to calculate ΔC T. mRNA expression of target genes were then calculated using the ΔΔC T method (2^ΔΔCT). Expression values were analyzed as described in the method for cellular luciferase assays.
In general terms: In a reporter assay the amount or activity of a reporter protein is the signal.

In the next assay the target is T1, mouse cGAS (Mus musculus, UniProt Q8C6L5).
T1 construct: recombinant full-length mouse cGAS in reaction buffer; His6-SUMO (N, cleaved yes); made in house; host or cells: E. coli BL21(DE3) RIL
T1 sequence (Q8C6L5 whole entry): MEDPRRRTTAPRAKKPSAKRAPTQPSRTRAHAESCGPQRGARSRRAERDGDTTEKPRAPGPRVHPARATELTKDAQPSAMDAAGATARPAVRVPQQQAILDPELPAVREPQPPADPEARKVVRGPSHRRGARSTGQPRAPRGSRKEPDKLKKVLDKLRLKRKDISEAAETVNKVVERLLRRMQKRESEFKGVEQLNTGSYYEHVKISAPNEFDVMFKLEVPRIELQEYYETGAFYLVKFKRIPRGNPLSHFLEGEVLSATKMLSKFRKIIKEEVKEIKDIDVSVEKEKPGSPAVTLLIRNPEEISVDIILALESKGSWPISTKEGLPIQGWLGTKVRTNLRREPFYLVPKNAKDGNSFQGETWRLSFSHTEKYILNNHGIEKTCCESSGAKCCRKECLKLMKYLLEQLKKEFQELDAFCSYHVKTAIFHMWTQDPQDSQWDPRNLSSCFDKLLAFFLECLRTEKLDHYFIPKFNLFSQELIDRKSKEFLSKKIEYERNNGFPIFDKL
Kind of assay: RapidFire mass spectrometry (RF-MS) cGAS enzymatic assay, cGAMP product formation. Conditions: for IC50: read-out: IC50. It counts as biochemical. A digest of the protocol:
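Reactions were stopped with 0.5% formic acid, then ATP, GTP and cGAMP were separated by solid-phase extraction on graphitic carbon and detected by negative-ion MS. Product formation (%) = AUCcGAMP×100/(AUCcGAMP + ½AUCATP + ½AUCGTP). Percent inhibition was normalized to positive and negative controls.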

Assay [2] deals with RAW KO-cGAS reporter cells. Kind of assay: RAW KO-cGAS reporter cells stimulated with cGAMP. It counts as cell-based, mouse. As for the experimental part:
as §1

The mark [3] stands for this setting: Supplementary Table 3, analogs more potent than RU166365.

“Also recorded” adds a separate entry of the source. Where two headings read alike, the source gives them in different places.

`Cc1nn(-c2nc3ccccc3[nH]2)c(O)c1C1OC(=O)c2ccccc21` (stereo not shown) [RU166365]: the “Il-6 mRNA expression” value in assay [1] (cells activated by Pam3CSK4, poly(I:C), or LPS, qRT-PCR) is “increased Il-6 messenger RNA (mRNA) expression”. Further, the IC50 stood at 520 nM at mouse cGAS (Supplementary Table 2, batch of compounds stored in the screening library) and 1890 nM at mouse cGAS (setting [3]). Also, at mouse cGAS (Supplementary Table 2, compound 12.5 µM, read-out: % inhibition at 12.5 µM), the inhibition at 12.5 µM was 99%.
With `Cc1nn(-c2nc3ccc(Cl)c(Cl)c3[nH]2)c(O)c1C1OC(=O)c2ccccc21` (stereo not shown) [RU320521, 3-[1-(6,7-dichloro-1H-benzimidazol-2-yl)-5-hydroxy-3-methyl-pyrazol-4-yl]-3H-isobenzofuran-1-one], the “inhibition of cells stimulated with recombinant Ifnb” value in assay [1] (JAK/STAT signaling, luciferase reporter) is listed as “did not inhibit”. Also, in assay [1] (compound at EC75, 5′ppp-HP20 RNA, Pam3CSK4, poly(I:C), LPS, Ifnb, listed as RU.521), the “suppression of activation by immunogenic stimuli other than dsDNA” value is “unable to potently suppress activation; also recorded: little to no inhibitory effects”. The “inhibition of reporter activity” value in assay [2] is “did not show any significant inhibition of reporter activity”. In addition, the 50% inhibitory concentration (IC50) at mouse cGAS (setting [3]) worked out at 110 nM. Besides, the “effect of structural modification on cGAS inhibitory potency” value at mouse cGAS (compared with RU.365) is “increased inhibitory potency”. The same compound had an improvement in potency at mouse cGAS (relative to RU.365) of 17 fold.

As usually defined, the IC50 is the concentration that inhibits the measured activity by half. By inhibition is commonly meant the percentage by which the read-out fell short of the control.
